Reference: patent US7241789B2, “Substituted indoles and their use as integrin antagonists” (3-Dimensional Pharmaceutical, Inc., priority 2001, dated 2007)

What follows are compounds tested against T1, human αvβ3 (Homo sapiens, UniProt P05106+P06756) (assay: αvβ3-vitronectin Assay). Conditions: inhibition of binding of biotinylated human vitronectin to plate-coated human αvβ3, ELISA, room temperature.
T1 construct: purchased Chemicon CC1019
Description: The assay is based on the method of Dennis (Dennis, M. S., et al., Proteins 15: […] (1993)). Costar 9018 flat-bottom 96-well ELISA plates were coated overnight at […] with 100 μL/well of 10 μg/mL human fibrinogen (Calbiochem 341578) in 20 mM Tris-HCl pH 7.5, 150 mM NaCl, 2 mM CaCl2, 0.02% NaN3 (TAC buffer), and blocked for 1 hr at 37° C. with 150 μL/well of TAC buffer containing 0.05% Tween 20 and 1% bovine serum albumin (TACTB buffer). After washing 3 times with 200 μL/well of 10 mM Na2 HPO4 pH 7.5, 150 mM NaCl, 0.01% Tween 20 (PBST buffer), controls or test compound (0.027–20.0 μM) were mixed with 40 μg/mL human GPIIbIIIa (Enzyme Research Laboratories) in TACTB buffer, and 100 μL/well of these solutions were incubated for 1 hr at 37° C. The plate was then washed 5 times with PBST buffer, and 100 μL/well of a monoclonal anti-GPIIbIIIa antibody in TACTB buffer (1 μg/mL, Enzyme Research Laboratories MabGP2b3a) was incubated at 37° C. for 1 hr. After washing (5 times with PBST buffer), 100 μL/well of goat anti-mouse IgG conjugated to horseradish peroxidase (Kirkegaard & Perry 14–23–06) was incubated at 37° C. for 1 hr (25 ng/mL in PBST buffer), followed by a 6-fold PBST buffer wash. The plate was developed by adding 100 μL/well of 0.67 mg o-phenylenediamine dihydrochloride per mL of 0.012% H2O2, 22 mM sodium citrate, 50 mM sodium phosphate, pH 5.0 at room temperature. The reaction was stopped with 50 μL/well of 2M H2SO4, and the absorbence at 492 nm was recorded. Percent (%) inhibition was calculated from the average of three separate determinations relative to buffer controls (no test compound added), and a four parameter fit (Marquardt, D. W., J. Soc. Indust. Appl. Math. 11:431–441 (1963)) was used to estimate the half maximal inhibition concentration (IC50).
The assay was based on the method of Niiya (Niiya, K., et al., Blood 70:475–483 (1987)). Costar 9018 flat-bottom 96-well ELISA plates were coated overnight at room temperature with 100 μL/well of 0.4 μg/mL human αvβ3 (Chemicon CC1019) in TS buffer (20 mM Tris-HCl pH 7.5, 150 mM NaCl, 1 mM CaCl2, 1 mM MgCl2, 1 mM MnCl2). All subsequent steps were performed at room temperature. Plates were blocked for 2 hr with 150 μL/well of TS buffer containing 1% BSA (TSB buffer), and washed 3 times with 200 μL/well of PBST buffer. Controls or test compound (0.0001–20.0 μM) were mixed with 1 μg/mL of human vitronectin (Chemicon CCO80) that had been biotinylated in-house with sulfo-NHS-LC-LC-biotin (Pierce 21338, 20:1 molar ratio), and 100 μL/well of these solutions (in TSB buffer) were incubated for 2 hr. The plate was then washed 5 times with PBST buffer, and 100 μL/well of 0.25 μg/mL NeutrAvidin-horseradish peroxidase conjugate (Pierce 31001) in TSB buffer was incubated for 1 hr. Following a 5-fold PBST buffer wash, the plate was developed and results were calculated as described for the fibrinogen-IIbIIIa assay.

T1 sequence (P06756 31-889 limits assumed): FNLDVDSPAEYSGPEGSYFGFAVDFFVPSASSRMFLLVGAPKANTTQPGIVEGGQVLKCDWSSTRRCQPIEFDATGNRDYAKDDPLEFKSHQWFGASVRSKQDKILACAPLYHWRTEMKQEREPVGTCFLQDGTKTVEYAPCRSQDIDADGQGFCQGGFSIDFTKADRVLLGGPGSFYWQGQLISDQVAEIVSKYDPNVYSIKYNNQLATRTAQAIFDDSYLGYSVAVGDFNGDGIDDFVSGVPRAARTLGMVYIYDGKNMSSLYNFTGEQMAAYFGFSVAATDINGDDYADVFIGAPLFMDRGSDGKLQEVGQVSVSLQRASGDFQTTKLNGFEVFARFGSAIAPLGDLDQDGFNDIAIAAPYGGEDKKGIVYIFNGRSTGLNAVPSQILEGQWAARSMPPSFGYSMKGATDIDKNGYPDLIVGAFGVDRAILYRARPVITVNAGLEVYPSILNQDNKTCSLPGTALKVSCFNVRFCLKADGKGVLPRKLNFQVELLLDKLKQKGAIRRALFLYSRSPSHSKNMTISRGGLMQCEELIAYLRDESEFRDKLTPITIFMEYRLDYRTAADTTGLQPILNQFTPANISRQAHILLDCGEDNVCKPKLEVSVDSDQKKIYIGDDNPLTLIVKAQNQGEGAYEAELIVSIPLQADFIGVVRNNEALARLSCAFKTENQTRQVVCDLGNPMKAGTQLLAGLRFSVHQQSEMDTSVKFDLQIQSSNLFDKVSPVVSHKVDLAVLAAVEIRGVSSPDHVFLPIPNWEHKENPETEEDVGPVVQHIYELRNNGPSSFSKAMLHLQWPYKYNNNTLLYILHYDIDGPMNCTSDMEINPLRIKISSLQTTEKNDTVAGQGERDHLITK
T1 sequence (P06756 891-1048 limits assumed): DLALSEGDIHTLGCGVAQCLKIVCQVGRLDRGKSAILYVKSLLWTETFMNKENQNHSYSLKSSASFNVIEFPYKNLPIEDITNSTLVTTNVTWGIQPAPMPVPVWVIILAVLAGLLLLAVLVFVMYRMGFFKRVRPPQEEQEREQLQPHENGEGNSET
T1 sequence (P05106 27-788): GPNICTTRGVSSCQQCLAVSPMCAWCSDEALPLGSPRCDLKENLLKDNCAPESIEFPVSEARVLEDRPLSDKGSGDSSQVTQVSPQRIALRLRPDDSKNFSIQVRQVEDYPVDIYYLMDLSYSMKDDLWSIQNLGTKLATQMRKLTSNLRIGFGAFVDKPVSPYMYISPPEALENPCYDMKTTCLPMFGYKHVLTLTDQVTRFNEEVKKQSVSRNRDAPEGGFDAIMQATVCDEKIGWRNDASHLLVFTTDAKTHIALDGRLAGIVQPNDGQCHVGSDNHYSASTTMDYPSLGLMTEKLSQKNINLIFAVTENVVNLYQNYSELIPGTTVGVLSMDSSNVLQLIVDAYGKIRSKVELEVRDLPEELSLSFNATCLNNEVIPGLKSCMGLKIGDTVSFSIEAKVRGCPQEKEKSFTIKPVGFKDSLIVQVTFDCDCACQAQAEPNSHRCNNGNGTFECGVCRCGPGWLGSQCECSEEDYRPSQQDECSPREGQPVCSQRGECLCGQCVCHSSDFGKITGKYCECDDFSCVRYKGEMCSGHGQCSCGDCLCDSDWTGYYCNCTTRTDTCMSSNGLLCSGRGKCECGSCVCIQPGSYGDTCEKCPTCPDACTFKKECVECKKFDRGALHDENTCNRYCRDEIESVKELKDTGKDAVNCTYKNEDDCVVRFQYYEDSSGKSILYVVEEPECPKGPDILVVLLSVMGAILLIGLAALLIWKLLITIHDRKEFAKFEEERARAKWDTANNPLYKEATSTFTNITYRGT

With CCCC(CC(=O)O)n1ccc2cc(OCCc3ccc4c(n3)NCCC4)ccc21 (stereo not shown) [Example 14, 3-{5-[2-(5,6,7,8-Tetrahydro-[1,8]naphthyridin-2-yl)-ethoxy]-indol-1-yl}-hexanoic acid] as the compound, how does the IC50 read?
The IC50 was 4 nM.

How did the IC50 turn out when CC(Cn1ccc2cc(OCCCNc3ccccn3)ccc21)C(=O)O (stereo not shown) [Example 7, 2-Methyl-3-{5-[3-(2-pyridylamino)propoxy]indolyl}propanoic acid] was run?
The IC50 was 500 nM.

O=C(O)[C@@H]1C[C@H]1n1ccc2cc(OCCCNc3ccccn3)ccc21 (relative stereo) [Example 4] was tested. Which IC50 did it give?
Its IC50 is 670 nM.

How did the IC50 turn out when O=C(O)CCn1ccc2cc(OCCc3ccc4c(n3)NCCC4)ccc21 [Example 15, 3-{5-[2-(5,6,7,8-Tetrahydro-[1,8]naphthyridin-2-yl)-ethoxy]-indol-1-yl}-propionic acid] was run?
Its IC50 is 6 nM.

Which IC50 does the source give for O=C(O)CC(c1cccnc1)n1ccc2cc(OCCc3ccc4c(n3)NCCC4)ccc21 (stereo not shown) [Example 38, 3-Pyridin-3-yl-3-{5-[2-(5,6,7,8-tetrahydro-[1,8]naphthyridin-2-yl)-ethoxy]-indol-1-yl}-propionic acid] here?
Its IC50 is 0.24 nM.

With “3-{5-[3-(2-Pyridylamino)propoxy]indolyl}propanoic acid ammonium salt [Example 1]” as the compound, how does the IC50 read?
The IC50 was 500 nM.

Which IC50 does the source give for CNc1cccc(CCOc2ccc3c(ccn3CCC(=O)O)c2)n1 [Example 5, 3-(5-{2-[6-(Methylamino)-2-pyridyl]ethoxy}indolyl)propanoic acid] here?
Its IC50 is 50 nM.
